Source: the NIST ThermoML archive (doi:10.1016/j.fluid.2006.10.004)
± gives the expanded uncertainty stated by the source.

Tests used:
[1] = 293.15 K; 101.33 kPa; Liquid
[2] = refractive index (Na D-line) (dimensionless); details: 293.15 K; 101.33 kPa; Liquid; Standard Abbe refractometry

| SMILES | mass density [1] [kg/m3] | refractive index [2] |
| --- | --- | --- |
| CC(C)CC(=O)CC(C)C [2,6-dimethyl-4-heptanone] | 804.8 ± 1.3 | 1.4155 ± 0.0008 |
| CCC(=O)O [propanoic acid] | 992.7 ± 0.6 | 1.3811 ± 0.0008 |
| CC(=O)CCC(C)C [5-methyl-2-hexanone] | 887.5 ± 1 | 1.4074 ± 0.0008 |
| CCC(=O)CCC(C)C [6-methyl-3-heptanone] | 822.7 ± 1.2 | 1.4194 ± 0.0008 |
